Experimental findings from ChEMBL document CHEMBL5579827, “Discovery of orally bioavailable phenyltetrazolium derivatives for the acute treatment and the secondary prevention of ischemic stroke” (Eur J Med Chem, 2024) are described below.

Data set [1] concerns N2a. The experiment in a line: Neuroprotective activity against OGD/R induced cell injury in mouse N2a cells assessed as cell viability at 10 uM preincubated under hypoxic condition for 2 hrs and measured after 24 hrs (reference value: 28.66 to 30.22 %). The format is functional. Particulars: time 26 hrs, read-out: Activity.
The nature of data set [2]: AUC(0 to t) in Sprague-Dawley rat at 10 mg/kg, po measured upto 8 hrs by LC-MS/MS analysis. The format is ADME, organism-based. The conditions noted are these: in vivo.
A short description of data set [3]: Tmax in Sprague-Dawley rat at 10 mg/kg, po measured upto 8 hrs by LC-MS/MS analysis. The data set is classed as ADME, organism-based. Particulars: Sprague-Dawley, in vivo, read-out: Tmax.
A short description of data set [4]: Cmax in Sprague-Dawley rat at 10 mg/kg, po measured upto 8 hrs by LC-MS/MS analysis. The format is ADME, organism-based. The conditions noted are these: Sprague-Dawley, in vivo, read-out: Cmax.
The nature of data set [5]: AUC(0 to infinity) in Sprague-Dawley rat at 10 mg/kg, po measured upto 8 hrs by LC-MS/MS analysis. The format is ADME, organism-based. The conditions noted are these: Sprague-Dawley, in vivo.
Data set [6] can be described thus: Half-life in Sprague-Dawley rat at 10 mg/kg, po measured upto 8 hrs by LC-MS/MS analysis. The format is ADME, organism-based. The conditions noted are these: Sprague-Dawley, in vivo.
Data set [7] relates to N2a. Nature of the data set: Neuroprotective activity against OGD/R induced cell injury in mouse N2a cells assessed as decrease in apoptotic ratio at 10 uM incubated for 24 hrs. The format is functional. Set-up: scale not given: the % may be the effect or the level left.
The next data set has as its system Mus musculus. The experiment in a line: Neuroprotective activity against tMCAO-reperfusion induced brain injury in SPF C57 mouse model assessed as reduction in infarct volume at 10 mg/kg, iv measured after 24 hrs. The data set is classed as functional. Set-up: scale not given: the % may be the effect or the level left.

Take `CCCCC(O)c1ccccc1-c1ccc[nH]1` (stereo not drawn): the viability at 10 µM in the data set on N2a [1] came out at 38.6%.

For orientation: AUC(0-t) means the area under the concentration-time curve up to a stated or last time point. The term Tmax denotes the time at which the peak concentration occurs. For the compound `CCCCC(O)c1ccc(Cl)cc1-c1nn[nH]n1` (stereo not drawn), in the data set on N2a [1], the viability at 10 µM amounted to 27.5%. In data set [2], this compound had an AUC(0-t) at 8 h of 2670 ng·h/mL. The Tmax in data set [3] was 15 min.

What is called Cmax is the highest concentration seen after dosing. One may read the AUC(0-inf) as total exposure, with the tail of the curve extrapolated. The half-life is the time needed for the level to fall by half in the phase considered. Take `CCCCC(O)c1ccccc1-c1nn[nH]n1` (stereo not drawn): the Cmax in data set [4] was determined as 12200 ng/mL. Further, the viability at 10 µM with N2a [1] amounted to 40.5%. The compound also came in with an exposure AUC(0-t) at 8 h in data set [2] of 26500 ng·h/mL. Further, the AUC(0-inf) in data set [5] is 37100 ng·h/mL. In addition, the time to peak (Tmax) in data set [3] amounted to 15 min. The compound further had a half-life in data set [6] of 279 min.

As for `CCCCC(O)c1ccc(Br)cc1-c1nnn(C2CC2)n1` (stereo not drawn), the viability at 10 µM in the data set on N2a [1] amounted to 50.6%.

Consider `CCCCC1OC(=O)c2ccccc21` (stereo not drawn) [RAC-3-N-BUTYLPHTHALIDE], for which the Activity in the data set on N2a [7] came to 130.83%; in the data set on Mus musculus, 25.43%. In addition, the viability at 10 µM with N2a [1] was found to be 36.6%.

As to `CCCCC(O)c1ccc(F)cc1-c1nn[nH]n1` (stereo not drawn), the viability at 10 µM with N2a [1] amounted to 35.1%. The compound also came in with an AUC(0-t) at 8 h in data set [2] of 2670 ng·h/mL. Moreover, in data set [3], the Tmax is 15 min.

Turning to `CCCCC(O)c1ccc(Br)cc1-c1nnn(CC)n1` (stereo not drawn), the viability at 10 µM in the data set on N2a [1] worked out at 53.6%. The Tmax in data set [3] is 15 min.

As for `CCCCCC(O)c1ccccc1-c1nn[nH]n1` (stereo not drawn), the viability at 10 µM in the data set on N2a [1] was found to be 35.6%.

With `CCCCC(O)c1cc(Br)ccc1-c1nn[nH]n1` (stereo not drawn), in the data set on N2a [1], the viability at 10 µM was 37.6%. The compound also returned an AUC(0-t) at 8 h in data set [2] of 2670 ng·h/mL. Further, the Tmax in data set [3] came to 15 min.
